Nc1cc([N+](=O)[O-])ccc1Cl
solubility (mole fraction)
Settings | 273.15 K | 278.15 K | 283.15 K | 288.15 K | 293.15 K | 298.15 K | 303.15 K | 308.15 K | 313.15 K
in 1,4-dioxane | – | – | – | 0.11 | 0.119 | 0.13 | 0.142 | 0.154 | 0.169
in 2-butanone | 0.0877 | 0.0973 | 0.108 | 0.119 | 0.13 | 0.141 | 0.153 | 0.165 | 0.179
in NMP | 0.155 | 0.161 | 0.166 | 0.173 | 0.179 | 0.186 | 0.193 | 0.201 | 0.209
in acetone | 0.103 | 0.112 | 0.122 | 0.133 | 0.144 | 0.156 | 0.168 | 0.182 | 0.197
in acetonitrile | 0.0222 | 0.0277 | 0.0342 | 0.0413 | 0.0495 | 0.0579 | 0.0671 | 0.077 | 0.0877
in ethanol | 0.0097 | 0.0112 | 0.0129 | 0.0149 | 0.0173 | 0.0198 | 0.0227 | 0.0258 | 0.0297
in ethyl acetate | 0.0765 | 0.0836 | 0.0915 | 0.0991 | 0.107 | 0.116 | 0.126 | 0.135 | 0.145
in isopropanol | 0.0047 | 0.0059 | 0.0074 | 0.0091 | 0.0109 | 0.0132 | 0.0158 | 0.0188 | 0.0226
in methanol | 0.0071 | 0.0085 | 0.01 | 0.0118 | 0.0141 | 0.0165 | 0.0193 | 0.0227 | 0.0263
in n-butanol | 0.0055 | 0.0069 | 0.0086 | 0.0104 | 0.0128 | 0.0153 | 0.0182 | 0.0213 | 0.0252
in n-propanol | 0.008 | 0.0094 | 0.011 | 0.0129 | 0.0152 | 0.0177 | 0.0209 | 0.0246 | 0.0283
in toluene | 0.0118 | 0.0134 | 0.0153 | 0.0174 | 0.0199 | 0.0231 | 0.0268 | 0.0309 | 0.0352

— BigSolDB 2.1
